From US8455666B1, “Vegetable oil esterified lipoic acid” (The United States of America, as represented by the …, priority 2011, dated 2013)

Columns and labels:
[1] = Vesicle leakage (calcein-cobalt) assay; conditions: 37° C.
Method: Lipid Preparation and Formation of Unilamellar Phospholipid Vesicles. Lipid mixtures and vesicles were prepared as described previously (Laszlo et al. 2010. ibid). Lipids were prepared from appropriate amounts of DOPC in chloroform and LDOG-SS- or LDOG-SH (at 1- or 5-mol % of total lipids) in ethanol added to clean amber vials and then gently mixed. Solvents were removed under a stream of argon and then vacuum. The dried lipids were rehydrated in the appropriate buffer and mixed periodically to form multilamellar phospholipid vesicles. The vesicles were subjected to freeze-thaw cycles and then extrusion to form unilamellar vesicles (approx. 125 nm in diameter). Vesicles were covered with argon, protected from light and stored at 4° C. until used. DOPC vesicles incorporating 1- or 5-mol % ALA or DHLA were similarly produced.
Vesicle Leakage (Calcein-Cobalt). Vesicles with and without LDOG were evaluated for membrane integrity using a leakage assay described previously (Evans. Room-temperature ionic liquid cations act as short-chain surfactants and disintegrate a phospholipid bilayer. Colloid. Surface. A 2006, 274:11-17; and Laszlo et al. 2010. ibid). Briefly, the leakage assay was designed such that the low fluorescent signal of the entrapped calcein-cobalt complex increased as vesicles leaked their contents and cobalt was stripped from calcein by external EDTA. Vesicle leakage was monitored with a fluorometer. Samples were continuously stirred in 1-cm path length quartz cuvettes 37° C., with measurements taken for 30 min at 5-s intervals. Experiments were conducted in triplicate. Leakage percentage (L) was determined from the intensity of the fluorescent signal, 100×(Ft−Fo)/(Fmax−Fo), where Ft was the fluorescent signal over time, Fo was the extrapolated initial signal at time zero, and Fmax was the fluorescent signal at the end of the experiment after rupture by addition of Triton X-100 solution. The apparent rate constant k (ms^−1) and maximum extent of vesicle leakage (L∞), prior to vesicle rupture, were obtained by fitting to the equation: Lt=L∞(1−exp(−kt)).

[2] = Lipid peroxidation inhibition capacity assay (AAPH initiator, C11-Bodipy reporter); format: biochemical; conditions: for antioxidant capacity compared with Trolox at the same concentration / oxidation protection of DOPC vesicles (C11-Bodipy fluorescence): in words; for oxidation protection of DOPC vesicles (C11-Bodipy fluorescence): AAPH
Method: Lipid Oxidation Inhibition. Lipid oxidation inhibition by LDOG was measured by the lipid peroxidation inhibition capacity assay, which employs AAPH as a free-radical initiator and the lipidic reporter molecule C11-Bodipy (Zhang et al., Lipid peroxidation inhibition capacity assay for antioxidants based on liposomal membranes. Mol. Nutr. Food Res. 2006, 50:714-724). C11-Bodipy fluoresces at 595 nm until it is oxidized, at which point its fluorescence shifts to ˜520 nm (Drummen et al., C11-bodipy581/591, an oxidation-sensitive fluorescent lipid peroxidation probe: (micro)spectroscopic characterization and validation of methodology. Free Radical Biol. Med. 2002, 33:473-490). Conditions for the assay using modified glycerides have been detailed previously (Laszlo et al. 2010. ibid). DOPC and C11-Bodipy were combined in a vial, dried to a film, and then rehydrated in 20 mM Tris-HCl, pH 7.4. When included, ALA, DHLA, LDOG-SS-, or LDOG-SH (at 1- or 5-mol % of total lipids) in ethanol were added prior to formation of vesicles. Unilamellar vesicles were prepared from rehydrated lipids as described above. Samples were diluted to a final concentration of 2.5 mM DOPC (2.4 μM C11-Bodipy) and allowed to equilibrate to 37° C. for 15 min prior to the introduction of AAPH. From the time of AAPH addition (40 mM final concentration), fluorescence intensity (excitation at 540 nm, emission at 595 nm) was measured every minute for 180 min. Experiments were conducted in triplicate at least. The relative fluorescence intensity was calculated by dividing the reading at each minute by the initial fluorescence at the beginning of the experiment (Ft/Fo). Background subtraction was accomplished using the appropriate vesicles without C11-Bodipy.
The water-soluble antioxidant Trolox was used for comparison. Trolox was combined with DOPC and C11-Bodipy, dried, and then rehydrated as described above. A final Trolox concentration range of 10 to 125 μM was employed. The peroxyl radical scavenging capacity of the test antioxidant relative to Trolox (i.e., the relative antioxidation activity) was calculated using the following equation
[formula] where AUCSample is the area under the fluorescence curve (AUC) for vesicles containing antioxidant, AUCTrolox is the area under the curve for vesicles containing 50 μM Trolox (thereby arbitrarily assigned a relative antioxidation activity value of 1.0), AUC0 is the area under the curve for vesicles containing only C11-Bodipy, and molSample is the molar concentration of the antioxidant (Naguib, A fluorometric method for measurement of peroxyl radical scavenging activities of lipophilic antioxidants. Anal. Biochem. 1998, 265:290-298). The AUC was calculated from the average of three different methods, those described by Cao and coworkers (Cao et al., Oxygen-radical absorbance capacity assay for antioxidants. Free Radical Biol. Med. 1993, 14:303-311), Naguib (Naguib, Antioxidant activities of astaxanthin and related carotenoids. J. Agric. Food. Chem. 2000, 48:1150-1154), and Zhang and coworkers (Zhang et al. 2006. ibid).

[3] = earlier study (Laszlo et al. 2010); cited from earlier work
[4] = antioxidant amount 1 mol % in DOPC vesicles
[5] = antioxidant amount 5 mol % in DOPC vesicles
[6] = concentration 25 μM, relative to 50 μM Trolox, DOPC vesicles, 37° C.
[7] = concentration 125 μM, relative to 50 μM Trolox, DOPC vesicles, 37° C.

Compound | leakage rate constant [1, 4] | leakage rate constant [1, 5] | relative antioxidant capacity [2, 6] | relative antioxidant capacity [2, 7] | antioxidant capacity compared with Trolox at the same concentration [2] | oxidation protection of DOPC vesicles (C11-Bodipy fluorescence) ([2]; 37° C.) | relative antioxidant capacity ([2]; concentration 10 μM, relative to 50 μM Trolox, DOPC vesicles, 37° C.) | relative antioxidant capacity ([2]; concentration 50 μM, reference arbitrarily assigned 1.0) | antioxidant capacity compared with Trolox [3]
O=C(O)CCCCC1CCSS1 (stereo not drawn) [ALA, α-Lipoic acid] | 5.19 ± 1.32 * ms^−1 · 10^3 | 3.98 ± 1.69 ms^−1 · 10^3 | 0.61 ± 0.26 | 0.29 ± 0.05 | – | – | – | – | –
O=C(O)CCCC[C@@H](S)CCS (racemic) [DHLA, dihydrolipoic acid] | 1.43 ± 1.25 ms^−1 · 10^3 | 0.48 ± 0.05 * ms^−1 · 10^3 | 1.95 ± 0.03 | 1.12 ± 0.02 | double | – | – | – | –
lipoyl dioleoylglycerol [LDOG—SS—] | 0.43 ± 0.12 * ms^−1 · 10^3 | 0.31 ± 0.06 * ms^−1 · 10^3 | 0.09 ± 0.01 | 0.02 ± 0.002 | – | afforded little oxidation protection | – | – | –
dihydrolipoyl dioleoylglycerol [LDOG—SH] | 4.90 ± 0.90 * ms^−1 · 10^3 | 1.88 ± 0.01 ms^−1 · 10^3 | 2.46 ± 0.10 | 1.21 ± 0.04 | double | markedly extended the probe's fluorescent period | – | – | –
Cc1c(C)c2c(c(C)c1O)CCC(C)(C(=O)O)O2 (stereo not shown) [Trolox] | – | – | 0.80 ± 0.09 | 0.80 ± 0.08 | – | – | 0.98 ± 0.28 | 1.00 | –
feruloyl dioleoylglycerol | – | – | – | – | – | – | – | – | slightly less
